Where a name gives a salt, the structure may show the parent alone. Activity calls are given as the source filed them. Bounds are passed on as bounds.

Assay [1] deals with NAD-dependent protein deacylase sirtuin-5, mitochondrial (Homo sapiens, UniProt Q9NXA8). Kind of assay: SIRT5 desuccinylase inhibitors, dose response, biochemical, fluorescence imaging, cherry-pick, set 5 (AID 720591).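 Note: desuccinylation of succinyl peptide AMC substrate read as fluorescence after trypsin release; potency of inhibitors that lower fluorescence and may act on trypsin instead.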
Chain of NAD-dependent protein deacylase sirtuin-5, mitochondrial (Q9NXA8 whole entry): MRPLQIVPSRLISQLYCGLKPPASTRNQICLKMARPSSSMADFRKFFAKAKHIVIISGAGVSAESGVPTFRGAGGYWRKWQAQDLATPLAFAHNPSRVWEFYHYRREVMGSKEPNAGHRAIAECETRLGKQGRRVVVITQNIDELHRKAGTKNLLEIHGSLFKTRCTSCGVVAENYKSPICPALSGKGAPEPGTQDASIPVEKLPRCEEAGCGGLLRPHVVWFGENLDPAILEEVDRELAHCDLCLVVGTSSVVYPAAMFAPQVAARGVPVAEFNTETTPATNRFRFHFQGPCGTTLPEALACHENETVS
For another assay, the target named is Vasopressin V2 receptor (Homo sapiens, UniProt P30518). Kind of assay: Late-stage results from the probe development effort to identify antagonists of arginine vasopressin receptor 1a (AVPR1a): fluorescence-based cell-based dose response AVPR2 inhibition counterscreen assay. In kind it is functional. (The purpose of a counterscreen is to sort out artefacts and off-target activity.)
Chain of Vasopressin V2 receptor (P30518 whole entry): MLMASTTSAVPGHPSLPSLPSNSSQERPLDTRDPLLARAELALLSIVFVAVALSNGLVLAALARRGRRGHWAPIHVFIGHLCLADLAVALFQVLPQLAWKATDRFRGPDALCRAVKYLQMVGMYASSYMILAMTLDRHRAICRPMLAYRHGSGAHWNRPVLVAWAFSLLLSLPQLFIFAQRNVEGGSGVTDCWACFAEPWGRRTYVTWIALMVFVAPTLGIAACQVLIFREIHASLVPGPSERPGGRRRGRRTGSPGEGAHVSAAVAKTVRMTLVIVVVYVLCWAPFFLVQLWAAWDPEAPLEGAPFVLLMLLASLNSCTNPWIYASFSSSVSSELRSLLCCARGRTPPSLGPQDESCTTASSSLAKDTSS

Another assay addresses Vasopressin V1b receptor (Homo sapiens, UniProt P47901). Kind of assay: Late-stage results from the probe development effort to identify antagonists of arginine vasopressin receptor 1a (AVPR1a): fluorescence-based cell-based dose response AVPR1b inhibition counterscreen assay. The format is functional.
Assay [2] can be described thus: Late-stage results from the probe development effort to identify antagonists of arginine vasopressin receptor 1a (AVPR1a): fluorescence-based cell-based dose response AVPR1a inhibition assay. The format is functional.
A short description of assay [3]: Late-stage results from the probe development effort to identify antagonists of arginine vasopressin receptor 1a (AVPR1a): fluorescence-based cell-based dose response OXTR inhibition counterscreen assay. The format is functional.
The target of assay [4] is COUP transcription factor 2 (Homo sapiens, UniProt P24468). Kind of assay: Luminescence-based cell-based high throughput dose response assay to identify inhibitors of COUP-TFII (NR2F2). The format is functional.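 Note: HEK293 cells transiently cotransfected with COUP-TFII expression vector and reporter; luciferase reporter luminescence driven by COUP-TFII from the pX2-168 reporter plasmid.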
Chain of COUP transcription factor 2 (P24468 whole entry): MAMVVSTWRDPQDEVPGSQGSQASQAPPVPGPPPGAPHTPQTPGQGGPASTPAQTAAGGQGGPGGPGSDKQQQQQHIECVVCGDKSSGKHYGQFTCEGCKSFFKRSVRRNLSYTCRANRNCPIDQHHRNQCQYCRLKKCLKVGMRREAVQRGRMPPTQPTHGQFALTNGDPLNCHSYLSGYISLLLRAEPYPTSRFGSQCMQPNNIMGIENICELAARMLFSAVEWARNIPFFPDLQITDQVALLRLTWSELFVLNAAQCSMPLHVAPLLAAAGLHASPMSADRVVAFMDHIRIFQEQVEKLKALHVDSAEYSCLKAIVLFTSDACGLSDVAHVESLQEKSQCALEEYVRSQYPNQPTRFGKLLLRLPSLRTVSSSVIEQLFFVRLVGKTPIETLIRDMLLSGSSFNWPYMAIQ
In another assay the target is fMet-Leu-Phe receptor (Homo sapiens, UniProt P21462). Kind of assay: FPR ligands, dose response (AID 519). In kind it is functional.
Chain of fMet-Leu-Phe receptor (P21462 whole entry): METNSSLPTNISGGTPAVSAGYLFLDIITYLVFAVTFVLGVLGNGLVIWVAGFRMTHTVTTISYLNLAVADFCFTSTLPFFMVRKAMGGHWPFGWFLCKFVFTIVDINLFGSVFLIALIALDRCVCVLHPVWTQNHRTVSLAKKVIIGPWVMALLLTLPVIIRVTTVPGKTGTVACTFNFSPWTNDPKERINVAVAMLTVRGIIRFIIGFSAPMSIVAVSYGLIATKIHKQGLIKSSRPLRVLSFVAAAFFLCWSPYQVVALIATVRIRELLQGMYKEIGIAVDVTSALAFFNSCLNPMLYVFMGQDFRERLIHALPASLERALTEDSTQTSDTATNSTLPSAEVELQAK
Assay [5] has as its target T1, Corticotropin-releasing factor receptor 2/Corticotropin-releasing factor-binding protein (Homo sapiens, UniProt P24387+Q13324).
T1 sequence (Q13324 whole entry): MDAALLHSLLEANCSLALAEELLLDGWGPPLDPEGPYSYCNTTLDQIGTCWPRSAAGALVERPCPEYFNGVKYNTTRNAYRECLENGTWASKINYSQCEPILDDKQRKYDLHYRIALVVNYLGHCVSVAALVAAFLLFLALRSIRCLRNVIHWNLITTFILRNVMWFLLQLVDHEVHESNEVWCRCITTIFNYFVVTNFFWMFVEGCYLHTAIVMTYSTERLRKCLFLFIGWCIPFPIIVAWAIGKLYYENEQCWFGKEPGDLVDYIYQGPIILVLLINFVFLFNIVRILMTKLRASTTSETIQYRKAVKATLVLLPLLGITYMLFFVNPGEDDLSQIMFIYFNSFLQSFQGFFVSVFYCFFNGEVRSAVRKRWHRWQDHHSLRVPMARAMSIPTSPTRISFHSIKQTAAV
T1 sequence (P24387 whole entry): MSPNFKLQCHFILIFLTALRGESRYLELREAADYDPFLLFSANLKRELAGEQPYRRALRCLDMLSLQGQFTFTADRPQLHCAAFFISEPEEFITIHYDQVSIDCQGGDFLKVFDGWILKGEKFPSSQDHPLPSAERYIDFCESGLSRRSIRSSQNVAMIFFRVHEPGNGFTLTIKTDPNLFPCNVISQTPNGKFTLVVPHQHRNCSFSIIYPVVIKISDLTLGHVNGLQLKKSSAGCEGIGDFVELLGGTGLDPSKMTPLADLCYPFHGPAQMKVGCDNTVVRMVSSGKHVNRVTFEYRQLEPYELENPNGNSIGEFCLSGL
Kind of assay: activators of CRF receptor 2 with binding protein – uHTS hits, confirmation (AID 602473). In kind it is functional. The following applies: read-out: EC50_Mean.

Assay [6] deals with T1, Corticotropin-releasing factor receptor 2/Corticotropin-releasing factor-binding protein. Kind of assay: Dose Response confirmation of uHTS hits for small molecule antagonists of the CRF-binding protein and CRF-R2 receptor complex. The format is functional. The settings on record: read-out: IC50_Mean.
Assay [7] has as its target FAD-linked sulfhydryl oxidase ALR (Homo sapiens, UniProt P55789). Kind of assay: inhibitors of human ALR sulfhydryl oxidase, dose response, biochemical, H2O2 detection, luminescence, cherry-pick (AID 493248).
A short description of assay [8]: A2780 ovarian cancer cell cytotoxicity, dose response, cytotoxicity control, plate reader, dry powder samples (AID 743046). The format is functional, cell-based.
Assay [9] in a line: cytotoxicity in OVCAR8 ovarian cancer cells, dose response, PAX8 project, cell-based, plate reader, dry powder samples (AID 743197). The settings on record: OVCAR-8. The format is functional.
Assay [10] in a line: NIH:OVCAR-3 ovarian cancer cell cytotoxicity, dose response, PAX8 inhibitor project, plate reader, dry powder samples (AID 743044). The format is functional, cell-based.
Another assay deals with Paired box protein Pax-8 (Homo sapiens, UniProt Q06710). Kind of assay: inhibitors of PAX8-driven TPO luciferase reporter, dose response, RMG-I cells, cherry-pick (AID 687027).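 Note: luciferase reporter driven by Pax8 target thyroperoxidase promoter measured by SteadyGlo luminescence.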 In kind it is functional, cell-based. For orientation: In a reporter assay the amount or activity of a reporter protein is the signal.
Chain of Paired box protein Pax-8 (Q06710 whole entry): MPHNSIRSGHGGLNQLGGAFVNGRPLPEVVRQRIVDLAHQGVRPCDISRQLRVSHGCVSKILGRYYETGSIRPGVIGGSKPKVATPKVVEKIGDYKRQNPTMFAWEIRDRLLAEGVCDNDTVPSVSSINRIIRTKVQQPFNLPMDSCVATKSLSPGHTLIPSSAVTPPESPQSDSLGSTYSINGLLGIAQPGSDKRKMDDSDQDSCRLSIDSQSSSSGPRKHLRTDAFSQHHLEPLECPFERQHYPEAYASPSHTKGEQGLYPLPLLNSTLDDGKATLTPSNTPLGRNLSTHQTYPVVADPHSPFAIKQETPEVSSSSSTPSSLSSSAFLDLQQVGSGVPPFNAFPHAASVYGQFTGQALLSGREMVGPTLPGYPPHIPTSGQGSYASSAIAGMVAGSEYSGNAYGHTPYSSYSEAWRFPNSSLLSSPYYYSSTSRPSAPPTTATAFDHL

Chain of Vasopressin V1b receptor (P47901 whole entry): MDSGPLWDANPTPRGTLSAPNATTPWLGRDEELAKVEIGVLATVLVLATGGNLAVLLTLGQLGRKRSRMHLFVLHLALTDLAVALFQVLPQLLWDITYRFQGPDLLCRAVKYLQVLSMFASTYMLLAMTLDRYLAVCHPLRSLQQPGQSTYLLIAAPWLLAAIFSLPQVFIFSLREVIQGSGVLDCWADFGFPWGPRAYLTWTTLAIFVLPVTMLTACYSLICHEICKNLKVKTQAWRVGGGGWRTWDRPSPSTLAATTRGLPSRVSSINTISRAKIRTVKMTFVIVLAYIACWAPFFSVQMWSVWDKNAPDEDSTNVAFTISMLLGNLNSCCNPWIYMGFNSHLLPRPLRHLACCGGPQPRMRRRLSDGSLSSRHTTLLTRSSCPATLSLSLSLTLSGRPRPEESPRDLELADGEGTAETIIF
Chain of FAD-linked sulfhydryl oxidase ALR (P55789 whole entry): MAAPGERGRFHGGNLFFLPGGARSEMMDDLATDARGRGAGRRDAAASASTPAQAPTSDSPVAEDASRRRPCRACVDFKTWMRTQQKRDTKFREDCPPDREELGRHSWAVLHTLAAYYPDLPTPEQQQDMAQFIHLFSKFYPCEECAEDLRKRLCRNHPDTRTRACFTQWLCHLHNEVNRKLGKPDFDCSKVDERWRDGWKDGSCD

What is called AC50 is the midpoint of the concentration-response curve, whichever way the signal moves. Consider `CNCCC(Oc1ccccc1OC)c1ccccc1` (stereo unspecified) [NISOXETINE HYDROCHLORIDE], for which the AC50 in [1] is > 30 µM (inactive).

Turning to `CCN(C(=O)N1CCN(c2ccccc2C)CC1)c1ccc(OC)cc1`, the IC50 was 6 µM (active) on Vasopressin V2 receptor, 8.81 µM (active) on Vasopressin V1b receptor, 0.062 µM (active) in [2] and 0.5 µM (active) in assay [3].

On to `COc1ccc(OCC(=O)Nc2ccc(C(=O)Nc3ccccc3C(=O)O)cc2)cc1`, for which the AC50 in [1] is > 30 µM (inactive).

As for `Cc1sc(NC(=O)CN2CCOCC2)nc1-c1ccc2c(c1)CCN2S(=O)(=O)c1ccccc1`, the IC50 in [4] is 8.52 µM (active).

As usually defined, the Ki is the dissociation constant of the complex between target and ligand, obtained from inhibition or displacement. `Cc1ccc(Nc2ccc(C(=O)O)cc2N)cc1`: on fMet-Leu-Phe receptor, the Ki was > 66.7 µM (inactive). For the same compound, the EC50 in assay [5] was > 53 µM (inactive). The IC50 in assay [6] is > 47.1 µM (inactive). Besides, the AC50 in assay [7] was 0.246 µM (active).

For the compound `COc1ccc(NC(=O)N2CCCCN3[C@@H](CO)[C@@H](c4ccc(C5=CCCC5)cc4)[C@@H]3C2)cc1`, the results for the AC50 in [8], in assay [9] and in assay [10] were 52.9 µM (active), 64.1 µM (active) and 41.6 µM (active), respectively.

For `C[C@H](CO)N1C[C@H](C)[C@@H](CN(C)S(=O)(=O)c2ccccc2)OCCCC[C@H](C)Oc2ccc(NS(=O)(=O)c3ccc(Cl)cc3)cc2C1=O`, the concentration at half-maximal activity (AC50) was 49.8 µM (active) in assay [8], 32.2 µM (active) in [10] and 5.23 µM (active) on Paired box protein Pax-8.

In the case of `Cc1ccccc1N1CCN(C(=O)N(CC2CC2)c2ccccc2)CC1`, the IC50 was 4.89 µM (active) at Vasopressin V2 receptor, 22 µM (inactive) at Vasopressin V1b receptor, 0.019 µM (active) in assay [2] and 4.9 µM (active) in assay [3].

The values are drawn from ChEMBL document CHEMBL1201862, “PubChem BioAssay data set” (2004).
